Source: patent US4471115A, “Water soluble derivatives of cephalex and process for their preparation” (Neopharmed S.p.A., priority 1980, dated 1984)
Where a name gives a salt, the structure may show the parent alone.

Legend:
[1] = Toxicity in the mouse (LD50); details: in vivo
Excerpt: (§1) Pharmacological and clinical tests have been carried out with the compounds of the invention and the results related to the lysine salt of 2-N-methylolcephalexin are hereinafter reported for illustrative purpose.

[2] = Toxicity in the rat (LD50); details: in vivo, po, per os
Excerpt: as §1

Solubility = assay type: physicochemical; details: for Solubility in alcohols: ethanol / absolute alcohols
pH of the water solution = assay type: physicochemical; details: water solution obtained in the preparation
Protocol: After about 10 minutes of stirring under the above conditions, a 50% solution of 14 g of lysine base was slowly added. The reaction mixture was little by little solubilized and the pH final value of the resulting solution was 7.5. The volume of the obtained solution was brought to the end value of 150 mls by adding cold distilled water. It was then sterile filtered and frozen in a prefreezer at -70° C. and finally lyophilized.

[3] = Cephalexin microbiological title
clinical = details: human, in vivo, po
[4] = well known; cited from earlier work
[5] = in vivo, po

## CC1=C(C(=O)O)N2C(=O)[C@@H](NC(=O)[C@H](NCO)c3ccccc3)[C@H]2SC1 [Example 1, Lysine salt of 2-N-methylol-cephalexin]
[1]; ip, intraperitoneal administration
  LD50: 3100 mg/kg
[1]; oral administration
  LD50: > 4000 mg/kg
[2]
  LD50: > 4000 mg/kg
Solubility
  Solubility in alcohols: little soluble in absoluble alcohols
  Solubility in water: cold soluble in water
pH of the water solution
  Final pH of the resulting solution: 7.5
[3]
  Cephalexin microbiological title: 99 to 100 % of theoretical value
clinical
  dose excreted at 24 h: 87%

## CC1=C(C(=O)O)N2C(=O)[C@@H](NC(=O)[C@H](NCO)c3ccccc3)[C@H]2SC1 [Example 2, Sodium salt of 2-N-methylol-cephalexin]
Solubility
  Solubility in alcohols: little soluble in ethanol and absolute alcohols
  Solubility in water: highly water soluble
pH of the water solution
  Final pH of the resulting solution: 7.1
[3]
  Cephalexin microbiological title: 99 to 102 % of theoretical value

## CC1=C(C(=O)O)N2C(=O)[C@@H](NC(=O)[C@H](N)c3ccccc3)[C@H]2SC1 [cephalexin, 7-(D-2-amino-2-phenylacetamido)-3-methyl-Δ^3-4-carboxylic acid]
[4]
  Antibiotic utility: wide spectrum antibiotic

## CC1=C(C(=O)O)N2C(=O)[C@@H](NC(=O)[C@H](N)c3ccccc3)[C@H]2SC1 [substance B, cephalexin monohydrated]
[5]
  Presence in the blood stream: higher
  Time after administration at which actives concentrations are detected: more than 6 hours
